Data: publication PMC7160233, “Peptides With Triplet-Tryptophan-Pivot Promoted Pathogenic Bacteria Membrane Defects” (Frontiers in Microbiology, 2020)
Where a SMILES comes first, the peptide text is derived from it.

Columns and labels:
[1] = system: E. coli 25922; format: cell-based, Escherichia coli; conditions: 25922, 24 h
Protocol: (§1) The antibacterial activity of the peptides was measured using a method adopted from the Clinical Laboratory Standards Institute (CLSI), with modifications. 50 μL bacterial cells solution with 1000-fold of OD600 = 0.4 was mixed with 50 μL of each peptide of various concentration ranged from 2 to 64 μM dissolved in BSA (0.2% with 0.01% acetic acid) and incubated in sterile 96-well plates at 37°C for 24 h. The MICs were calculated as the lowest concentration of peptide with no microbial growth being observed. Broth with microbial cells and uninoculated broth were used as positive control and negative control, respectively. The tests were performed at least three times.

[2] = system: E. coli UB 1005; assay: MIC measurement (modified CLSI broth microdilution); format: cell-based, Escherichia coli; conditions: peptide 2-64 μM in 0.2% BSA with 0.01% acetic acid, 37°C, 24 h, at least three times
Protocol: as §1

[3] = system: P. aeruginosa 27853; format: cell-based, Pseudomonas aeruginosa; conditions: 27853, 24 h
Protocol: as §1

[4] = system: S. epidermidis 12228; format: cell-based, Staphylococcus epidermidis; conditions: 12228, 24 h
Protocol: as §1

[5] = system: S. aureus 29213; format: cell-based, Staphylococcus aureus; conditions: 29213, 24 h
Protocol: as §1

[6] = system: MRSA* 43300; format: cell-based, methicillin-resistant Staphylococcus aureus; conditions: * 43300, 24 h
Protocol: as §1

[7] = system: L. rhamnosus 1.0385; format: cell-based, Lactobacillus rhamnosus; conditions: 24 h
Protocol: as §1

[8] = system: L. rhamnosus 1.0386; format: cell-based, Lactobacillus rhamnosus; conditions: 24 h
Protocol: as §1

[9] = system: L. rhamnosus 1.0911; format: cell-based, Lactobacillus rhamnosus; conditions: 24 h
Protocol: as §1

[10] = system: L. rhamnosus 1.9025; format: cell-based, Lactobacillus rhamnosus; conditions: 24 h
Protocol: as §1

[11] = system: L. rhamnosus 7469; format: cell-based, Lactobacillus rhamnosus; conditions: 24 h
Protocol: as §1

[12] = system: pathogens; assay: Geometric mean of MICs against pathogens; format: cell-based; conditions: six pathogenic strains of Table 2
Protocol: as §1

[13] = system: L. plantarum 8014; format: cell-based; conditions: 24 h
Protocol: as §1

[14] = system: Lactobacillus; format: cell-based; conditions: probiotic strains of Table 2
Protocol: as §1

[15] = system: humans; conditions: corresponding to the rat value, ref Richard et al., 2009, Fernstrom, 2012; cited from earlier work
From the text: (§2) Also, the indole ring of tryptophan prefers to interact with a […], and the indole NH being close to a lipid carbonyl ester leads W-containing peptides to be powerful and safe promising antibiotic candidates with different beneficial effects ([Dixon et al., 2003]; ...

[16] = system: rats; conditions: ref Richard et al., 2009, Fernstrom, 2012; cited from earlier work
From the text: as §2

[17] = system: E. coli ATCC 25922; assay: Drug resistance experiment (sequential passaging); format: cell-based, Escherichia coli; conditions: E. coli 25922, passaged at sub-MIC for 30 days
Protocol: Resistance development of E. coli ATCC 25922 against antibiotics was investigated using a sequential passaging method. Briefly, in the first generation, the MIC value was determined as described previously. After a 24 h incubation, bacterial cells growing in a well with a half-MIC level were harvested and diluted to 0.05 at OD600, followed by a 1:10 dilution in fresh MHB. The inoculum was subjected to subsequent passage MIC testing, and the process was repeated for 30 days. The fold change in MIC was plotted against the number of passages.

[18] = system: E. coli ATCC 25922; assay: Mouse infection model, bacterial load; format: in vivo; conditions: ICR mice, i.p. E. coli 1 × 10^8 CFU/ml, 5 mg/kg i.p. 1 h later, 6 h, P < 0.05
Protocol: Female Institute for Cancer Research (ICR) mice (SPF, 20–25 g) were purchased from WeiTonglihua, Co., Ltd. (Beijing, China). Mice were fed and acclimatized as described ([Chou et al., 2019]). E. coli ATCC 25922 was adopted as the pathogenic bacterium for the infection model in this study. In this mouse model, the antimicrobial activity of S7 was determined by colony counting of blood and various organs. Briefly, the mice were divided into four groups (six groups for anti-inflammatory assay) and received intraperitoneal injections of 100 μl E. coli (1 × 10^8 CFU/ml) cells in 0.9% NaCl or only 100 μl 0.9% NaCl as control. 1 h later, 100 μl S7 (5 mg/kg), 100 μl 0.9% NaCl, 100 μl gentamicin (5 mg/kg) or 100 μl 0.9% NaCl, was intraperitoneally injected to the treated or control groups, respectively. And the mice were sacrificed via excessive anesthesia after 6 h post-challenge. The anti-inflammatory effect of S7 was measured by testing the levels of TNF-α, IL-6, and IL-1β in serum using a TNF-α enzyme-linked immunosorbent assay (ELISA) kit, an IL-6 ELISA kit and an IL-1β ELISA kit according to the manufacturer’s instructions (Shanghai Jin Ma Laboratory Equipment, Co., Ltd.).

Row | Compound | MIC E. coli 25922 [1] [μ M] | MIC E. coli UB 1005 [2] [μ M] | MIC P. aeruginosa 27853 [3] [μ M] | MIC S. epidermidis 12228 [4] [μ M] | MIC S. aureus 29213 [5] [μ M] | MIC MRSA* 43300 [6] [μ M] | MIC L. rhamnosus 1.0385 [7] [μ M] | MIC L. rhamnosus 1.0386 [8] [μ M] | MIC L. rhamnosus 1.0911 [9] [μ M] | MIC L. rhamnosus 1.9025 [10] [μ M] | MIC L. rhamnosus 7469 [11] [μ M] | geometric mean (GM) of MICs against pathogens [12] [µM] | MIC L. plantarum 8014 [13] [μ M] | MIC against Lactobacillus [14] | median lethal dose (LD50), corresponding dose in humans [15] [mg/kg] | median lethal dose (LD50) [16] [mg/kg] | resistance development (change in MIC on serial passaging) [17] | number of colonies in blood, kidney and liver versus E. coli group [18]
1 | C[C@@H](O)[C@H](NC(=O)[C@H](Cc1c[nH]c2ccccc12)NC(=O)[C@H](Cc1c[nH]c2ccccc12)NC(=O)[C@H](Cc1c[nH]c2ccccc12)NC(=O)[C@@H](NC(=O)[C@H](Cc1c[nH]c2ccccc12)NC(=O)[C@H](CCCNC(=N)N)NC(=O)[C@@H](N)CCCNC(=N)N)[C@@H](C)O)C(=O)N[C@@H](Cc1c[nH]c2ccccc12)C(=O)N[C@@H](CCCNC(=N)N)C(=O)N[C@@H](CCCNC(=N)N)C(N)=O [Peptide S5] (H-RRWTWWWTWRR-NH2) | 2 | 2 | 4 | 2 | 1 | 4 | >64 | >64 | >64 | >64 | >64 | 2.24 | >64 | more than 64 μM |  |  |  | 
2 | N=C(N)NCCC[C@H](NC(=O)[C@H](CCCNC(=N)N)NC(=O)[C@H](Cc1c[nH]c2ccccc12)NC(=O)CNC(=O)[C@H](Cc1c[nH]c2ccccc12)NC(=O)[C@H](Cc1c[nH]c2ccccc12)NC(=O)[C@H](Cc1c[nH]c2ccccc12)NC(=O)CNC(=O)[C@H](Cc1c[nH]c2ccccc12)NC(=O)[C@H](CCCNC(=N)N)NC(=O)[C@@H](N)CCCNC(=N)N)C(N)=O [Peptide S6] (H-RRWGWWWGWRR-NH2) | 4 | 2 | 8 | >64 | 16 | 16 | >64 | >64 | >64 | >64 | >64 |  | >64 |  |  |  |  | 
3 | N=C(N)NCCC[C@H](NC(=O)[C@H](CCCNC(=N)N)NC(=O)[C@H](Cc1c[nH]c2ccccc12)NC(=O)[C@H](CO)NC(=O)[C@H](Cc1c[nH]c2ccccc12)NC(=O)[C@H](Cc1c[nH]c2ccccc12)NC(=O)[C@H](Cc1c[nH]c2ccccc12)NC(=O)[C@H](CO)NC(=O)[C@H](Cc1c[nH]c2ccccc12)NC(=O)[C@H](CCCNC(=N)N)NC(=O)[C@@H](N)CCCNC(=N)N)C(N)=O [Peptide S7] (H-RRWSWWWSWRR-NH2) | 4 | 2 | 4 | 4 | 4 | 2 | >64 | >64 | >64 | >64 | >64 | 3.17 | >64 | more than 64 μM |  |  |  | 
4 | N[C@@H](Cc1c[nH]c2ccccc12)C(=O)O [Tryptophan (W), Tryptophan] |  |  |  |  |  |  |  |  |  |  |  |  |  |  | ~1400 | 1600 |  | 
5 | CNC(C)C1CCC(N)C(OC2C(N)CC(N)C(OC3OCC(C)(O)C(NC)C3O)C2O)O1 (stereo not drawn) [gentamicin] |  |  |  |  |  |  |  |  |  |  |  |  |  |  |  |  | induced rapid resistance acquisition | significantly decreased
6 | CN(C)[C@@H]1C(O)=C(C(N)=O)C(=O)[C@@]2(O)C(O)=C3C(=O)c4c(O)cccc4[C@@](C)(O)[C@H]3C[C@@H]12 [tetracycline] |  |  |  |  |  |  |  |  |  |  |  |  |  |  |  |  | induced rapid resistance acquisition | 
